Results as given in ChEMBL document CHEMBL5260810, “Inhibition of bromodomain-containing protein 9 for the prevention of epigenetically-defined drug resistance” (Bioorg Med Chem Lett, 2017).

Experiments:
Type in all cases: functional, cell-based
[1] = system: EL4; assay: Cytotoxicity against mouse EL4 cells measured after 8 days; settings: EL4, 192 h
[2] = system: MOLM-13; assay: Cytotoxicity against human MOLM-13 cells measured after 8 days; settings: MOLM-13, 192 h
[3] = Cytotoxicity against human Karpas-620 cells measured after 8 days; settings: Karpas-620, 192 h
[4] = Cytotoxicity against human NCI-H2369 cells measured after 8 days; settings: NCI-H2369, 192 h
[5] = system: SUP-B15; assay: Cytotoxicity against human SUP-B15 cells measured after 8 days; settings: SUP-B15, 192 h
[6] = Cytotoxicity against human RERF-LC-KJ cells measured after 8 days; settings: 192 h
[7] = Cytotoxicity against human SCLC-22H cells measured after 8 days; settings: 192 h
[8] = Cytotoxicity against human NCE-G 121 cells measured after 8 days; settings: NCE-G 121, 192 h
[9] = Cytotoxicity against human NCE-G 122 cells measured after 8 days; settings: NCE-G 122, 192 h
[10] = Cytotoxicity against human NCE-G 130 cells measured after 8 days; settings: NCE-G 130, 192 h
[11] = Cytotoxicity against human NCE-G 140 cells measured after 8 days; settings: NCE-G 140, 192 h
[12] = Cytotoxicity against human NCE-G 84 cells measured after 8 days; settings: NCE-G 84, 192 h
[13] = Cytotoxicity against human NCE-G 96 cells measured after 8 days; settings: NCE-G 96, 192 h
[14] = system: GI-1; assay: Cytotoxicity against human GI-1 cells measured after 8 days; settings: GI-1, 192 h
[15] = Cytotoxicity against mouse FOX-NY cells measured after 8 days; settings: 192 h
[16] = Cytotoxicity against human KP-N-SI9s cells measured after 8 days; settings: 192 h
[17] = system: FaDu; assay: Cytotoxicity against human FaDu cells measured after 8 days; settings: 192 h
[18] = Cytotoxicity against human COV318 cells measured after 8 days; settings: COV318, 192 h
[19] = Cytotoxicity against human COV413A cells measured after 8 days; settings: 192 h
[20] = Cytotoxicity against human COV413B cells measured after 8 days; settings: 192 h
[21] = Cytotoxicity against human Hs 38.T cells measured after 8 days; settings: 192 h
[22] = system: KURAMOCHI; assay: Cytotoxicity against human KURAMOCHI cells measured after 8 days; settings: 192 h
[23] = system: TOV112D; assay: Cytotoxicity against human TOV112D cells measured after 8 days; settings: 192 h
[24] = system: Capan-2; assay: Cytotoxicity against human Capan-2 cells measured after 8 days; settings: Capan-2, 192 h
[25] = system: CFPAC-1; assay: Cytotoxicity against human CFPAC-1 cells measured after 8 days; settings: CFPAC-1, 192 h
[26] = system: HEp-2; assay: Cytotoxicity against human HEp-2 cells measured after 8 days; settings: HEp-2, 192 h
[27] = Cytotoxicity against human MR1-3 cells measured after 8 days; settings: MR1-3, 192 h
[28] = Cytotoxicity against human KR7414 cells measured after 8 days; settings: KR7414, 192 h
[29] = system: CaR-1; assay: Cytotoxicity against human CaR-1 cells measured after 8 days; settings: CaR-1, 192 h
[30] = system: COLO-320-HSR; assay: Cytotoxicity against human COLO 320HSR cells measured after 8 days; settings: 192 h
[31] = Cytotoxicity against human Panc 05.04 cells measured after 8 days; settings: Panc 05.04, 192 h
[32] = system: PANC-1; assay: Cytotoxicity against human PANC-1 cells measured after 8 days; settings: PANC-1, 192 h
[33] = system: NCI-H2052; assay: Cytotoxicity against human NCI-H2052 cells measured after 8 days; settings: NCI-H2052, 192 h
[34] = system: MC-38; assay: Cytotoxicity against mouse MC38 ovalbumin cells measured after 8 days; settings: MC-38, 192 h
[35] = system: SW1463; assay: Cytotoxicity against human SW1463 cells measured after 8 days; settings: SW1463, 192 h
[36] = Cytotoxicity against human Mel 928 cells measured after 8 days; settings: Mel 928, 192 h
[37] = system: A2058; assay: Cytotoxicity against human A2058 cells measured after 8 days; settings: A2058, 192 h
[38] = system: C32; assay: Cytotoxicity against human C32 cells measured after 8 days; settings: C32, 192 h
[39] = system: KYSE-410; assay: Cytotoxicity against human KYSE-410 cells measured after 8 days; settings: KYSE-410, 192 h
[40] = system: KYSE-70 cell line; assay: Cytotoxicity against human KYSE-70 cell line measured after 8 days; settings: KYSE-70, 192 h
[41] = system: COLO-800; assay: Cytotoxicity against human COLO-800 cells measured after 8 days; settings: COLO-800, 192 h
[42] = system: COLO-829; assay: Cytotoxicity against human COLO-829 cells measured after 8 days; settings: COLO-829, 192 h
[43] = Cytotoxicity against human HSC-5 cells measured after 8 days; settings: HSC-5, 192 h
[44] = system: CAKI-2; assay: Cytotoxicity against human CAKI-2 cells measured after 8 days; settings: CAKI-2, 192 h
[45] = Cytotoxicity against human HCC1010 cells measured after 8 days; settings: HCC1010, 192 h
[46] = system: Renca; assay: Cytotoxicity against mouse Renca cells measured after 8 days; settings: 192 h
[47] = system: HepG2; assay: Cytotoxicity against human HepG2 cells measured after 8 days; settings: HepG2, 192 h
[48] = system: SNU-182; assay: Cytotoxicity against human SNU-182 cells measured after 8 days; settings: SNU-182, 192 h
[49] = system: SNU-398; assay: Cytotoxicity against human SNU-398 cells measured after 8 days; settings: SNU-398, 192 h
[50] = system: SNU-638; assay: Cytotoxicity against human SNU-638 cells measured after 8 days; settings: SNU-638, 192 h
[51] = Cytotoxicity against mouse AB22 cells measured after 8 days; settings: AB22, 192 h
[52] = system: DMS-273; assay: Cytotoxicity against human DMS-273 cells measured after 8 days; settings: DMS-273, 192 h
[53] = system: FTC-133; assay: Cytotoxicity against human FTC-133 cells measured after 8 days; settings: FTC-133, 192 h
[54] = Cytotoxicity against human BICR 22 cells measured after 8 days; settings: BICR 22, 192 h
[55] = Cytotoxicity against human PE/CA-PJ15 cells measured after 8 days; settings: PE/CA-PJ15, 192 h
[56] = system: RT-112; assay: Cytotoxicity against human RT-112 cells measured after 8 days; settings: RT-112, 192 h
[57] = Cytotoxicity against human HCC15 cells measured after 8 days; settings: HCC15, 192 h
[58] = Cytotoxicity against human HCC1534 cells measured after 8 days; settings: HCC1534, 192 h
[59] = system: HT-1080; assay: Cytotoxicity against human HT-1080 cells measured after 8 days; settings: HT-1080, 192 h
[60] = Cytotoxicity against human GCH-nu-YS cells measured after 8 days; settings: 192 h
[61] = Cytotoxicity against human HEC-116 cells measured after 8 days; settings: HEC-116, 192 h
[62] = system: MES-SA; assay: Cytotoxicity against human MES-SA cells measured after 8 days; settings: 192 h

Structure (SMILES): C/C=C/Cn1cc(-c2ccc(C(C)(C)O)cc2OC)c2cc[nH]c2c1=O
- IC50 [1]: 20 µM
- IC50 [2]: 6.19 µM
- IC50 [3]: 20 µM
- IC50 [4]: 20 µM
- IC50 [5]: 20 µM
- IC50 [6]: 20 µM
- IC50 [7]: 20 µM
- IC50 [8]: 20 µM
- IC50 [9]: 20 µM
- IC50 [10]: 20 µM
- IC50 [11]: 20 µM
- IC50 [12]: 20 µM
- IC50 [13]: 20 µM
- IC50 [14]: 20 µM
- IC50 [15]: 20 µM
- IC50 [16]: 20 µM
- IC50 [17]: 20 µM
- IC50 [18]: 20 µM
- IC50 [19]: 20 µM
- IC50 [20]: 20 µM
- IC50 [21]: 20 µM
- IC50 [22]: 20 µM
- IC50 [23]: 20 µM
- IC50 [24]: 20 µM
- IC50 [25]: 20 µM
- IC50 [26]: 20 µM
- IC50 [27]: 20 µM
- IC50 [28]: 20 µM
- IC50 [29]: 20 µM
- IC50 [30]: 20 µM
- IC50 [31]: 20 µM
- IC50 [32]: 20 µM
- IC50 [33]: 20 µM
- IC50 [34]: 20 µM
- IC50 [35]: 20 µM
- IC50 [36]: 20 µM
- IC50 [37]: 20 µM
- IC50 [38]: 20 µM
- IC50 [39]: 20 µM
- IC50 [40]: 20 µM
- IC50 [41]: 20 µM
- IC50 [42]: 20 µM
- IC50 [43]: 20 µM
- IC50 [44]: 20 µM
- IC50 [45]: 20 µM
- IC50 [46]: 20 µM
- IC50 [47]: 20 µM
- IC50 [48]: 20 µM
- IC50 [49]: 20 µM
- IC50 [50]: 20 µM
- IC50 [51]: 20 µM
- IC50 [52]: 20 µM
- IC50 [53]: 20 µM
- IC50 [54]: 20 µM
- IC50 [55]: 20 µM
- IC50 [56]: 20 µM
- IC50 [57]: 20 µM
- IC50 [58]: 20 µM
- IC50 [59]: 20 µM
- IC50 [60]: 20 µM
- IC50 [61]: 20 µM
- IC50 [62]: 7.08 µM
